In one experiment the test system is L. monocytogenes CBC3. Kind of experiment: Deferred antagonism assay. The class given is cell-based, Listeria monocytogenes. Also on record: key: + = Enhanced bioactivity relative to control; − = Bioactivity equal to or less than control; NA = no activity evident. The settings on record: producing strain; L. mono CBC3. The procedure, abridged: (§1)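 Producer strains replicated on GM17 or GM17 x-gal agar, grown overnight, then overlaid with 0.75% agar seeded with indicator strain. Zone size = diameter of clearing minus 5 mm growth diameter. Purified nisins tested by well diffusion at 37° C overnight; activity in AU/ml from reciprocal of highest active dilution × 20.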

The next experiment deals with L. monocytogenes CBC2. The experiment in a line: Deferred antagonism assay. Type of experiment: cell-based, Listeria monocytogenes. The settings on record: producing strain; L. mono CBC2. On the set-up: key: + = Enhanced bioactivity relative to control; − = Bioactivity equal to or less than control; NA = no activity evident. In a few lines: as §1
The next experiment relates to L. monocytogenes CBC1. The experiment in a line: Deferred antagonism assay. As to conditions: producing strain; L. mono CBC1. Type of experiment: cell-based, Listeria monocytogenes. On the set-up: key: + = Enhanced bioactivity relative to control; − = Bioactivity equal to or less than control; NA = no activity evident. In a few lines:
as §1

In experiment [1] the test system is Listeria monocytogenes 33115. The experiment in a line: Deferred antagonism assay. The class given is cell-based. On the set-up: key: −, no inhibition; (+), clear zone directly above the colony; +, 1-5 mm zone; ++, 6-10 mm zone; +++, <10 mm zone. The settings on record: nisin strain; L. monocytogenes 33115. As for the experimental part:
(§2) Deferred antagonism assays were performed by replicating strains on GM17 or GM17 x-gal agar plates and allowing them to grow overnight before overlaying with either GM17/BHI/TS/MH agar (0.75% w/v agar) seeded with the appropriate indicator strain. Zone size was calculated as the diameter of the zone of clearing minus the diameter of bacterial growth (5 mm) For higher throughput screening of N20PXX, XM21VX, XXK22T and XXX banks deferred antagonism assays were performed by replicating strains using a 96 pin replicator (Boekel) or spotting 5 μl of a fresh overnight culture on GM17 agar plates and allowing them to grow overnight. […] Additional sets of indicators were employed to further assess/reassess the bioactivity of a number of strains. […] For well-diffusion assays molten agar was cooled to 48° C. and seeded with the appropriate indicator strain. The inoculated medium was rapidly transferred into sterile Petri plates in 50 ml volumes, allowed to solidify and dried. Wells (4.6 mm in diameter) were then made in the seeded plates. Purified nisin and mutant nisins were resuspended in 0.005% acetic acid, serially diluted, 50 μl volumes were dispensed into the aforementioned wells and the plates incubated at 37° C. overnight. Bioactivity was expressed as arbitrary units/ml (AU/ml) and calculated as the reciprocal of the highest dilution that gave a definite zone multiplied by the conversion factor (i.e. 20 when 50 μl was used) (Ryan et al., 1996).

Experiment [2] deals with Listeria monocytogenes 33028. The experiment in a line: Deferred antagonism assay. On the set-up: key: −, no inhibition; (+), clear zone directly above the colony; +, 1-5 mm zone; ++, 6-10 mm zone; +++, <10 mm zone. The settings on record: nisin strain; L. monocytogenes 33028. Type of experiment: cell-based. Here is the method:
as §2

Experiment [3] concerns Listeria monocytogenes 33226. Kind of experiment: Deferred antagonism assay. Type of experiment: cell-based. On the set-up: key: −, no inhibition; (+), clear zone directly above the colony; +, 1-5 mm zone; ++, 6-10 mm zone; +++, <10 mm zone. The settings on record: nisin strain; L. monocytogenes 33226. As for the experimental part:
as §2

The test system of experiment [4] is Listeria monocytogenes SLCC 7194. Kind of experiment: Deferred antagonism assay. As to conditions: nisin strain; L. monocytogenes SLCC 7194. Type of experiment: cell-based. Also on record: key: −, no inhibition; (+), clear zone directly above the colony; +, 1-5 mm zone; ++, 6-10 mm zone; +++, <10 mm zone. As for the experimental part:
as §2

Experiment [5] deals with Listeria monocytogenes 33015. Kind of experiment: Deferred antagonism assay. Type of experiment: cell-based. Also on record: key: −, no inhibition; (+), clear zone directly above the colony; +, 1-5 mm zone; ++, 6-10 mm zone; +++, <10 mm zone. As to conditions: nisin strain; L. monocytogenes 33015. Here is the method:
as §2

The subject of experiment [6] is Listeria monocytogenes N3008. Kind of experiment: Deferred antagonism assay. The class given is cell-based. On the set-up: key: −, no inhibition; (+), clear zone directly above the colony; +, 1-5 mm zone; ++, 6-10 mm zone; +++, <10 mm zone. As to conditions: nisin strain; L. monocytogenes N3008. As for the experimental part: as §2
The subject of experiment [7] is Listeria monocytogenes 33008. Kind of experiment: Deferred antagonism assay. Type of experiment: cell-based. Also on record: key: −, no inhibition; (+), clear zone directly above the colony; +, 1-5 mm zone; ++, 6-10 mm zone; +++, <10 mm zone. The settings on record: nisin strain; L. monocytogenes 33008. Here is the method: as §2
The test system of experiment [8] is Listeria monocytogenes F6854. The experiment in a line: Deferred antagonism assay. Type of experiment: cell-based. On the set-up: key: −, no inhibition; (+), clear zone directly above the colony; +, 1-5 mm zone; ++, 6-10 mm zone; +++, <10 mm zone. As to conditions: nisin strain; L. monocytogenes F6854. Here is the method:
as §2

Experiment [9] has as its system Listeria monocytogenes 33233. Kind of experiment: Deferred antagonism assay. Type of experiment: cell-based. Also on record: key: −, no inhibition; (+), clear zone directly above the colony; +, 1-5 mm zone; ++, 6-10 mm zone; +++, <10 mm zone. As to conditions: nisin strain; L. monocytogenes 33233. Here is the method:
as §2

The test system of experiment [10] is Listeria monocytogenes 33068. The experiment in a line: Deferred antagonism assay. The class given is cell-based. Also on record: key: −, no inhibition; (+), clear zone directly above the colony; +, 1-5 mm zone; ++, 6-10 mm zone; +++, <10 mm zone. The settings on record: nisin strain; L. monocytogenes 33068. As for the experimental part: as §2
The next experiment concerns indicator strains. Kind of experiment: Deferred antagonism assays, various indicator strains (summary). The class given is cell-based. As to conditions: for Strain(s) against which the derivative (producing strain) displays enhanced bioactivity: relative to nisin A-producing control, value = strains listed. The procedure, abridged: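 Producer strains were replicated on GM17 or GM17 x-gal agar, grown overnight, then overlaid with GM17, BHI, TS or MH soft agar (0.75% w/v) seeded with the indicator strain. Zone size was taken as the clearing diameter minus the diameter of bacterial growth (5 mm).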

The subject of the next experiment is L. plantarum CBC6. The experiment in a line: Deferred antagonism assay. The class given is cell-based, Lactobacillus plantarum. As to conditions: producing strain. Also on record: key: + = Enhanced bioactivity relative to control; − = Bioactivity equal to or less than control; NA = no activity evident. In a few lines:
as §1

“Also recorded” adds a separate entry of the source. Ends that are not written are not given here.

The values below come from US8987193B2, “Nisin derivatives and the use thereof” (University College Cork—National University of Ireland, Cork, priority 2008, dated 2015).

“NisinA K22A (ITSISLCTPGCKTGALMGCNMATATCHCSIHVSK; not fully specified; also: lantibiotic: lanthionine rings and dehydro residues not placed; UniProt P13068 24-57, looked up, variant K22A) [nisin A derivative, hinge substitution K22A]”: the “Bioactivity relative to control” value in the experiment with L. monocytogenes CBC3 was “−”; in the experiment on L. monocytogenes CBC2, “+”; in the experiment on L. monocytogenes CBC1, “−”; in the experiment on L. plantarum CBC6, “−”. For the same substance, the “Activity score (zone)” value in experiment [1] is given as “+ (+, 1-5 mm zone)”; in experiment [2], “+ (+, 1-5 mm zone)”; in [3], “+ (+, 1-5 mm zone)”; in experiment [4] it was “+ (+, 1-5 mm zone)”; in [5], “+ (+, 1-5 mm zone)”; in experiment [6], “+ (+, 1-5 mm zone)”. Also, the “Activity score (zone)” value is given as “−” in experiment [7]; “+ (+, 1-5 mm zone)” in experiment [8]; “+ (+, 1-5 mm zone)” in [9]; “−” in experiment [10]. For the same substance, in the experiment with indicator strains, the “Strain(s) against which the derivative (producing strain) displays enhanced bioactivity” value (from here on “Strain(s) against which the derivative”) was “L. monocytogenes K22A and L. lactis CBC8; also recorded: L. lactis CBC8 and L. monocytogenes CBC2 , and an additional 13 L. monocytogenes and 3 L. innocua; also recorded: additional 13 L. monocytogenes and 3 L. innocua, S. aureus; also recorded: ST528 and DPC5425, Strep. agalactiae ATCC 13813”.
Turning to “NisinA M21G (ITSISLCTPGCKTGALMGCNGKTATCHCSIHVSK; not fully specified; also: lantibiotic: lanthionine rings and dehydro residues not placed; UniProt P13068 24-57, looked up, variant M21G) [nisin A derivative, hinge substitution M21G]”, the “Bioactivity relative to control” value is listed as “−” with L. monocytogenes CBC3, “+” in the experiment on L. monocytogenes CBC2, “−” with L. monocytogenes CBC1 and “−” in the experiment on L. plantarum CBC6. The “Activity score (zone)” value in experiment [1], in experiment [2], in experiment [3], in [4], in experiment [5] and in experiment [6] was “−” throughout. In addition, the “Activity score (zone)” value in experiment [7], in [8], in [9] and in [10] was “−” in each case. Besides, in the experiment with indicator strains (Staph. aureus ST528, DPC5245 and Strep. agalactiae ATCC 13813 taken together), the “relative bioactivity against the indicators of Table 6” value is on record as “approximately 120%”. Also, the “Strain(s) against which the derivative” value with indicator strains was “L. monocytogenes CBC2, Staph. aureus CBC4 and C. sporogenes CBC5; also recorded: L. monocytogenes CBC2 , S. aureus CBC4, ST528 , and DPC5425, Strep. agalactiae ATCC 13813, C. sporogenes CBC5 + an additional 7 L. monocytogenes and 3 L. innocua”.
On to “NisinA M21I (ITSISLCTPGCKTGALMGCNIKTATCHCSIHVSK; not fully specified; also: lantibiotic: lanthionine rings and dehydro residues not placed; UniProt P13068 24-57, looked up, variant M21I) [nisin A derivative, hinge substitution M21I]”, for which the “Bioactivity relative to control” value in the experiment on L. monocytogenes CBC3 was “−”; with L. monocytogenes CBC2 it was “+”; in the experiment with L. monocytogenes CBC1 it was “−”; with L. plantarum CBC6, “−”. Also, the “Activity score (zone)” value is given as “−” in experiment [1]; “+ (+, 1-5 mm zone)” in [2]; “+ (+, 1-5 mm zone)” in experiment [3]; “+ (+, 1-5 mm zone)” in experiment [4]; “+ (+, 1-5 mm zone)” in [5]; “+ (+, 1-5 mm zone)” in experiment [6]. For the same substance, the “Activity score (zone)” value in experiment [7] is “−”; in [8], “+ (+, 1-5 mm zone)”; in [9] it was “+ (+, 1-5 mm zone)”; in experiment [10], “−”. In the experiment with indicator strains, the “Strain(s) against which the derivative” value is “L. momocytogenes CBC2, Staph. aureus CBC4, C. sporogenes CBC5, L. lactis CBC7 and CBC8; also recorded: L. monocytogenes CBC2, S. aureus CBC4, C. sporogenes CBC5, L. lactis CBC7 and an additional 15 L. monocytogenes and 2 L. innocua”.
On to “NisinA M21S (ITSISLCTPGCKTGALMGCNSKTATCHCSIHVSK; not fully specified; also: lantibiotic nisin: dehydrated residues and thioether rings not placed; UniProt P13068 24-57, looked up, variant M21S) [nisin A derivative, hinge substitution M21S]”, for which the “Bioactivity relative to control” value in the experiment on L. monocytogenes CBC3 is reported as “+”; with L. monocytogenes CBC2, “+”; in the experiment on L. monocytogenes CBC1, “−”; in the experiment with L. plantarum CBC6 it was “−”. Further, the “Activity score (zone)” value in experiment [1] is “(+)”; in [2], “++ (++, 6-10 mm zone)”; in experiment [3], “+ (+, 1-5 mm zone)”; in experiment [4] it was “+ (+, 1-5 mm zone)”; in [5] it was “+ (+, 1-5 mm zone)”; in experiment [6] it was “++ (++, 6-10 mm zone)”. Moreover, the “Activity score (zone)” value in [7] is listed as “+ (+, 1-5 mm zone)”; in experiment [8], “+ (+, 1-5 mm zone)”; in experiment [9] it was “+ (+, 1-5 mm zone)”; in experiment [10] it was “+ (+, 1-5 mm zone)”. For the same substance, the “Strain(s) against which the derivative” value with indicator strains is “L. monocytogenes CBC2 , CBC3, Staph. aureus CBC4, C. sporogenes CBC5 and L. lactis CBC8; also recorded: L. monocytogenes CBC2 , CBC3, S. aureus CBC4, C. sporogenes CBC5, L. lactis CBC8 and an additional 23 L. monocytogenes strains and 3 L. innocua”.
